Results on 20 compounds are retold here after patent publication US10047098B2, “C5-C6-oxacyclic fused iminopyrimidinone compounds as bace inhibitors, compositions, and their use” (Merck Sharp & Dohme Corp., priority 2014, dated 2018).

The Ki is the equilibrium dissociation constant of an inhibitor or competing ligand from its target.

Each structure is given as a SMILES string.

Assay [1] concerns the target Recombinant human soluble BACE1 catalytic domain (Homo sapiens (Human), UniProt P56817). Kind of assay: BACE1 HTRF FRET Assay. The class given is biochemical. To be noted: Ki calculated from IC50 using the Cheng-Prusoff equation; QSY7-APPswe-Eu substrate, pH 5.0; read-out: BACE-1 Ki. An excerpt:
Reagents: Na^+-Acetate pH 5.0; 1% Brij-35; Glycerol; Dimethyl Sulfoxide (DMSO); Recombinant human soluble BACE1 catalytic domain (>95% pure); APP Swedish mutant peptide substrate (QSY7-APP^swe-Eu): QSY7-EISEVNLDAEFC-Europium-amide.
A homogeneous time-resolved FRET assay can be used to determine IC50 values for inhibitors of the soluble human BACE1 catalytic domain. This assay monitors the increase of 620 nm fluorescence that resulted from BACE1 cleavage of an APPswedish APP^swe mutant peptide FRET substrate (QSY7-EISEVNLDAEFC-Europium-amide). This substrate contains an N-terminal QSY7 moiety that serves as a quencher of the C-terminal Europium fluorophore (620 nm Em). In the absence of enzyme activity, 620 nm fluorescence is low in the assay and increased linearly over 3 hours in the presence of uninhibited BACE1 enzyme. Inhibition of BACE1 cleavage of the QSY7-APP^swe-Eu substrate by inhibitors is manifested as a suppression of 620 nm fluorescence.
Varying concentrations of inhibitors at 3× the final desired concentration in a volume of 10 ul are preincubated with purified human BACE1 catalytic domain (3 nM in 10 μl) for 30 minutes at 30° C. in reaction buffer containing 20 mM Na-Acetate pH 5.0, 10% glycerol, 0.1% Brij-35 and 7.5% DSMO. Reactions are initiated by addition of 10 μl of 600 nM QSY7-APP^swe-Eu substrate (200 nM final) to give a final reaction volume of 30 μl in a 384 well Nunc HTRF plate. The reactions are incubated at 30° C. for 1.5 hours. The 620 nm fluorescence is then read on a Rubystar HTRF plate reader (BMG Labtechnologies) using a 50 millisecond delay followed by a 400 millisecond acquisition time window. Inhibitor IC50 values are derived from non-linear regression analysis of concentration response curves. Ki values are then calculated from IC50 values using the Cheng-Prusoff equation using a previously determined […] of 8 μM for the QSY7-APP^swe-Eu substrate at BACE1.

Assay [2] deals with purified human autoBACE-2 (Homo sapiens (Human), UniProt Q9Y5Z0). Kind of assay: BACE-2 Assay (BACE-HTRF assay). To be noted: Ki calculated from IC50 using the Cheng-Prusoff equation; QSY7-EISEVNLDAEFC-Eu-amide substrate, pH 5.0. It counts as biochemical. As for the experimental part: Inhibitor IC50s at purified human autoBACE-2 are determined in a time-resolved endpoint proteolysis assay that measures hydrolysis of the QSY7-[…]-Eu-amide FRET peptide substrate (BACE-HTRF assay). […] DMSO is present at 5% final concentration in the assay. Following laser excitation of sample wells at 320 nm, the fluorescence signal at 620 nm is collected for 400 ms following a 50 μs delay on a RUBYstar HTRF plate reader (BMG Labtechnologies). Raw RFU data is normalized to maximum (1.0 nM BACE/DMSO) and minimum (no enzyme/DMSO) RFU values. […] The Ki values are calculated from the IC50 using the Cheng-Prusoff equation.
Chain of purified human autoBACE-2 (Q9Y5Z0 63-473 limits assumed): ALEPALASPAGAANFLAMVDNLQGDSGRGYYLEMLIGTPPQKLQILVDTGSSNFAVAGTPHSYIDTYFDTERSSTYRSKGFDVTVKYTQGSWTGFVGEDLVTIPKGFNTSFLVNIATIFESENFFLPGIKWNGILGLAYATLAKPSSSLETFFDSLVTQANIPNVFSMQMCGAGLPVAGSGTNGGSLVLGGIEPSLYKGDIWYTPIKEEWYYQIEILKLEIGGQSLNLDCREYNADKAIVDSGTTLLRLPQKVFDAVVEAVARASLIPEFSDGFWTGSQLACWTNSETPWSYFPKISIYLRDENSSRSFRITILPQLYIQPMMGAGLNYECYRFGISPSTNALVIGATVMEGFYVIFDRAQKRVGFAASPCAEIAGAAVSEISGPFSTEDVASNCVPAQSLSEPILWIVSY

Chain of Recombinant human soluble BACE1 catalytic domain (P56817 75-416): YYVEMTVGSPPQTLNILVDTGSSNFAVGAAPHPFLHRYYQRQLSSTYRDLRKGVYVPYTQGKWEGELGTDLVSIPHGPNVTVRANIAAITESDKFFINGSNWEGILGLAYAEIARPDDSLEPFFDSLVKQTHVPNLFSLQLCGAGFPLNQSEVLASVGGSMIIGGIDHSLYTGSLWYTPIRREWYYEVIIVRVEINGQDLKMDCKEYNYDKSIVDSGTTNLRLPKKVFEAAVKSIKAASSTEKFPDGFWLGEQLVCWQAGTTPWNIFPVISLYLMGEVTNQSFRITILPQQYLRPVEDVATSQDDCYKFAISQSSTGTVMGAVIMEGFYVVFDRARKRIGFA

Consider `C[C@H]1C[C@H]2C(=O)N(C)C(=N)N[C@@]2(c2cc(OCC3CC3)ccc2F)CO1` [Example 23, (4aR,6S,8aS)-8a-(5-(cyclopropylmethoxy)-2-fluorophenyl)-2-imino-3,6-dimethylhexahydro-1H-pyrano[3,4-d]pyrimidin-4(4aH)-one], for which the figures for the Ki in assay [1] and in assay [2] were 0.013 µM and 0.008 µM, respectively.
The like results for `CN1C(=N)N[C@@]2(c3cc(OCC4CC4)ccc3F)CO[C@@H](C3CC3)C[C@H]2C1=O` [Example 24, (4aR,6R,8aS)-6-cyclopropyl-8a-(5-(cyclopropylmethoxy)-2-fluorophenyl)-2-imino-3-methylhexahydro-1H-pyrano[3,4-d]pyrimidin-4(4aH)-one] were, in that order, 0.011 µM and 0.01 µM.
The like results for `CN1C(=N)N[C@@]2(c3cc(Oc4cccc(C#N)c4)ccc3F)CO[C@@H](C3CC3)C[C@H]2C1=O` [Example 25, 3-(3-((4aR,6R,8aS)-6-cyclopropyl-2-imino-3-methyl-4-oxohexahydro-1H-pyrano[3,4-d]pyrimidin-8a(8H)-yl)-4-fluorophenoxy)benzonitrile] were, in that order, 0.027 µM and 0.046 µM.
As to `C[C@H]1C[C@H]2C(=O)N(C)C(=N)N[C@@]2(c2cc(OCC34CC(C#N)(C3)C4)ccc2F)CO1` [Example 26, 3-((4-fluoro-3-((4aR,6S,8aS)-2-imino-3,6-dimethyl-4-oxohexahydro-1H-pyrano[3,4-d]pyrimidin-8a(8H)-yl)phenoxy)methyl)bicyclo[1.1.1]pentane-1-carbonitrile], the Ki in assay [1] was 0.008 µM; in assay [2], 0.098 µM.
As for `CN1C(=N)N[C@@]2(c3cc(Oc4cncc(C#N)c4)ccc3F)CO[C@@H](C3CC3)C[C@H]2C1=O` [Example 27, 5-(3-((4aR,6R,8aS)-6-cyclopropyl-2-imino-3-methyl-4-oxohexahydro-1H-pyrano[3,4-d]pyrimidin-8a(8H)-yl)-4-fluorophenoxy)nicotinonitrile], the Ki was 0.01 µM in assay [1] and 0.051 µM in assay [2].
The like results for `CN1C(=N)N[C@@]2(c3cc(-c4cncnc4)ccc3F)CO[C@@H](C3CC3)C[C@H]2C1=O` [Example 28, (4aR,6R,8aS)-6-cyclopropyl-8a-(2-fluoro-5-(pyrimidin-5-yl)phenyl)-2-imino-3-methylhexahydro-1H-pyrano[3,4-d]pyrimidin-4(4aH)-one] were, in that order, 0.136 µM and 0.627 µM.
As to `CN1C(=N)N[C@@]2(c3cc(Oc4cncc(C(F)F)n4)ccc3F)CO[C@@H](C3CC3)C[C@H]2C1=O` [Example 29, (4aR,6R,8aS)-6-cyclopropyl-8a-(5-((6-(difluoromethyl)pyrazin-2-yl)oxy)-2-fluorophenyl)-2-imino-3-methylhexahydro-1H-pyrano[3,4-d]pyrimidin-4(4aH)-one], the Ki in assay [1] was 0.016 µM; in assay [2] it was 0.054 µM.
For `COC[C@H]1C[C@H]2C(=O)N(C)C(=N)N[C@@]2(c2cc(Oc3cc(C#N)ccn3)ccc2F)CO1` [Example 30, 2-(4-fluoro-3-((4aR,6R,8aS)-2-imino-6-(methoxymethyl)-3-methyl-4-oxohexahydro-1H-pyrano[3,4-d]pyrimidin-8a(8H)-yl)phenoxy)isonicotinonitrile], the Ki is 0.003 µM in assay [1] and 0.025 µM in assay [2].
Turning to `COC[C@H]1C[C@H]2C(=O)N(C)C(=N)N[C@@]2(c2cc(Oc3ncccc3F)ccc2F)CO1` [Example 31, (4aR,6R,8aS)-8a-(2-fluoro-5-((3-fluoropyridin-2-yl)oxy)phenyl)-2-imino-6-(methoxymethyl)-3-methylhexahydro-1H-pyrano[3,4-d]pyrimidin-4(4aH)-one], the Ki in assay [1] was 0.004 µM; in assay [2], 0.008 µM.
Regarding `COC[C@H]1C[C@H]2C(=O)N(C)C(=N)N[C@@]2(c2cc(OCC3CC3)ccc2F)CO1` [Example 32, (4aR,6R,8aS)-8a-(5-(cyclopropylmethoxy)-2-fluorophenyl)-2-imino-6-(methoxymethyl)-3-methylhexahydro-1H-pyrano[3,4-d]pyrimidin-4(4aH)-one], the inhibition constant Ki is 0.021 µM in assay [1] and 0.009 µM in assay [2].
As for `CN1C(=N)N[C@@]2(c3cc(Oc4cccc(-n5cccn5)n4)ccc3F)CO[C@@H](C3CC3)C[C@H]2C1=O` [Example 34, (4aR,6R,8aS)-8a-(5-((6-(1H-pyrazol-1-yl)pyridin-2-yl)oxy)-2-fluorophenyl)-6-cyclopropyl-2-imino-3-methylhexahydro-1H-pyrano[3,4-d]pyrimidin-4(4aH)-one], the inhibition constant (Ki) in assay [1] is 0.0022 µM; in assay [2], 0.0135 µM.
Turning to `CN1C(=N)N[C@@]2(c3cc(Oc4cccc(-c5cocn5)c4)ccc3F)CO[C@@H](C3CC3)C[C@H]2C1=O` [Example 35], the Ki in assay [1] is 0.013 µM; in assay [2], 0.086 µM.
The like results for `C[C@H]1C[C@H]2C(=O)N(C)C(=N)N[C@@]2(c2cc(Oc3ncc(F)cc3F)ccc2F)CO1` [Example 36, (4aR,6S,8aS)-8a-(5-((3,5-difluoropyridin-2-yl)oxy)-2-fluorophenyl)-2-imino-3,6-dimethylhexahydro-1H-pyrano[3,4-d]pyrimidin-4(4aH)-one] were, in that order, 0.0089 µM and 0.024 µM.
For `CN1C(=N)N[C@@]2(c3cc(OCC45CC(C#N)(C4)C5)ccc3F)CO[C@@H](C3CC3)C[C@H]2C1=O` [Example 37, 3-((3-((4aR,6R,8aS)-6-cyclopropyl-2-imino-3-methyl-4-oxohexahydro-1H-pyrano[3,4-d]pyrimidin-8a(8H)-yl)-4-fluorophenoxy)methyl)bicyclo[1.1.1]pentane-1-carbonitrile], the Ki is 0.009 µM in assay [1] and 0.127 µM in assay [2].
In the case of `CN1C(=N)N[C@@]2(c3cc(C#N)ccc3F)CO[C@@H](C3CC3)C[C@H]2C1=O` [Example 38, 3-((4aR,6R,8aS)-6-cyclopropyl-2-imino-3-methyl-4-oxohexahydro-1H-pyrano[3,4-d]pyrimidin-8a(8H)-yl)-4-fluorobenzonitrile], the Ki is 0.206 µM in assay [1] and 0.398 µM in assay [2].
The like results for `CN1C(=N)N[C@@]2(c3cc(Oc4cnccn4)ccc3F)CO[C@@H](C3CC3)C[C@H]2C1=O` [Example 39, (4aR,6R,8aS)-6-cyclopropyl-8a-(2-fluoro-5-(pyrazin-2-yloxy)phenyl)-2-imino-3-methylhexahydro-1H-pyrano[3,4-d]pyrimidin-4(4aH)-one] were, in that order, 0.013 µM and 0.073 µM.
The like results for `CN1C(=N)N[C@@]2(c3cc(Oc4ccncc4)ccc3F)CO[C@@H](C3CC3)C[C@H]2C1=O` [Example 40, (4aR,6R,8aS)-6-cyclopropyl-8a-(2-fluoro-5-(pyridin-4-yloxy)phenyl)-2-imino-3-methylhexahydro-1H-pyrano[3,4-d]pyrimidin-4(4aH)-one] were, in that order, 0.054 µM and 0.011 µM.
Consider `CN1C(=N)N[C@@]2(c3cc(Oc4ccnnc4)ccc3F)CO[C@@H](C3CC3)C[C@H]2C1=O` [Example 41, (4aR,6R,8aS)-6-cyclopropyl-8a-(2-fluoro-5-(pyridazin-4-yloxy)phenyl)-2-imino-3-methylhexahydro-1H-pyrano[3,4-d]pyrimidin-4(4aH)-one], for which the Ki was 0.106 µM in assay [1] and 0.065 µM in assay [2].
`COc1cncc(Oc2ccc(F)c([C@]34CO[C@@H](C5CC5)C[C@H]3C(=O)N(C)C(=N)N4)c2)n1` [Example 42, (4aR,6R,8aS)-6-cyclopropyl-8a-(2-fluoro-5-((6-methoxypyrazin-2-yl)oxy)phenyl)-2-imino-3-methylhexahydro-1H-pyrano[3,4-d]pyrimidin-4(4aH)-one]: the figures for the Ki in assay [1] and in assay [2] were 0.007 µM and 0.051 µM, respectively.
The like results for `CN1C(=N)N[C@@]2(c3cc(Oc4ncccn4)ccc3F)CO[C@@H](C3CC3)C[C@H]2C1=O` [Example 43, (4aR,6R,8aS)-6-cyclopropyl-8a-(2-fluoro-5-(pyrimidin-2-yloxy)phenyl)-2-imino-3-methylhexahydro-1H-pyrano[3,4-d]pyrimidin-4(4aH)-one] were, in that order, 0.052 µM and 0.191 µM.
